Test results as given in BindingDB's records for doi:10.1016/j.bmc.2020.115644 (Umass Medical School, 2020).
Counter-ions that a name gives are not always drawn.

Key:
[1] = target: T1, NAD(+) hydrolase SARM1 (Homo sapiens, UniProt Q6SZW1); assay: Noncompetitive inhibition of recombinant human SARM1 TIR domain (561 to 724 residues) expressed in Escherichia coli C43 (DE3) cells lysates assessed as EADPR formation using ENAD as substrate preincubated for 20 mins followed by ENAD addition and measured at 15 sec interval for 1 hr
T1 sequence (Q6SZW1 whole entry): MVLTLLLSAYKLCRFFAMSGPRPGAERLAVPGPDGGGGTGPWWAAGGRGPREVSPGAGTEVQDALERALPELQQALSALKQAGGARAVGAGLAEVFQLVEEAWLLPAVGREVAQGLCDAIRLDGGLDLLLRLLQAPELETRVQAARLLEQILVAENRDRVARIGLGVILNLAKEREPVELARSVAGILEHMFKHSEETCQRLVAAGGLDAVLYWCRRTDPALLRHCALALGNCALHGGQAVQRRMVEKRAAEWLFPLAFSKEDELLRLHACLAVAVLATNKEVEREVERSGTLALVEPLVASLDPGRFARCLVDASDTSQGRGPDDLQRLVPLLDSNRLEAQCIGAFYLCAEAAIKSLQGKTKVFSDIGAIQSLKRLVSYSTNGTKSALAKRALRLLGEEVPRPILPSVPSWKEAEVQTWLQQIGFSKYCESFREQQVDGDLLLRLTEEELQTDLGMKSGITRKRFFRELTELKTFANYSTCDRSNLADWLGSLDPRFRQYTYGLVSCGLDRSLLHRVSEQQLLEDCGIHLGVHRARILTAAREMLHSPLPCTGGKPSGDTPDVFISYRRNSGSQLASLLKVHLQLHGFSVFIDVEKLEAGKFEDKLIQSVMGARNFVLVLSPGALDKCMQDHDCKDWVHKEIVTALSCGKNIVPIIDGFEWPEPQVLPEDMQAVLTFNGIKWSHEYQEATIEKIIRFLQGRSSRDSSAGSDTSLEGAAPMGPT

[2] = target: T1, NAD(+) hydrolase SARM1; assay: Inhibition of recombinant human SARM1 TIR domain (561 to 724 residues) expressed in Escherichia coli C43 (DE3) cells lysates using ENAD as substrate preincubated for 20 mins followed by ENAD addition and measured at 15 sec interval for 15 mins

Ki [1] | IC50 [2] | SMILES
280 µM | 145 µM | C[C@H]1c2cccc(O)c2C(=O)C2=C(O)[C@]3(O)C(=O)C(C(N)=O)=C(O)[C@@H](N(C)C)[C@@H]3[C@@H](O)[C@@H]21 [DOXYCYCLINE HYDROCHLORIDE]
 | 145 µM | Nc1ccc(/N=N/c2ccccc2)c(N)n1 [NC 150]
